We go through 35 compounds from BindingDB's records for doi:10.7270/Q2JM286J (Burnham Center For Chemical Genomics, 2012).

Broadly, the IC50 is the concentration that inhibits the measured activity by half. Read a high IC50 as weaker potency in that assay.

Each structure is given as a SMILES string.

This assay concerns the target Prothrombin (Bos taurus, UniProt P00735). In words: thrombin inhibition, dose response, biochemical, fluorescence polarization, uHTS hits (AID 602369). (Fluorescence polarisation rises when a labelled molecule tumbles more slowly, as on binding a larger partner.)

In turn, `O=C1N=C(Nc2ccc(Cl)cc2Cl)SC1=Cc1c[nH]c2ccccc12` showed an IC50 of 38.3 µM. The value for `COC1=CC([N+](=O)[O-])=CC(/C=N/NC(=O)c2cc(-c3ccccc3)nc3ccccc23)C1=O` (stereo not given) was 75.1 µM; that for `COC1=CC(=Cc2c(C)[nH]n(-c3cccc(Br)c3)c2=O)C=C(OC)C1=O` was 39 µM; that for `CN(CCO)c1ccc(CN=Nc2ccc([N+](=O)[O-])cc2S(=O)(=O)Nc2ccccc2C(=O)O)cc1` was 36.4 µM. As to `O=c1c(Cl)c(N=NCc2ccc(Br)cc2)cnn1-c1ccccc1`, the IC50 was greater than 100 µM. `CCOC(=O)C1C(=O)C(=Cc2ccc(-c3ccccc3C(=O)O)o2)SC1=Nc1ccc(OC)cc1` (stereo not given) registered an IC50 of 13.1 µM. In turn, `CC[n+]1c(CC=Nc2ccccc2)oc2ccc(OC)cc21` returned an IC50 of 55.6 µM. The value for `O=C1C=CC([N+](=O)[O-])=CC1C=NN=C1NS(=O)(=O)c2ccccc21` (stereo not given) was 36.8 µM; that for `CCN(CC)CCOC(=O)c1ccc(N=CC(C#N)c2nc(-c3ccc4c(c3)OCO4)cs2)cc1` (stereo not given) [2-(diethylamino)ethyl 4-[[(Z)-2-[4-(1,3-benzodioxol-5-yl)-1,3-thiazol-2-yl]-2-cyano-ethenyl]amino]benzoate] was 56.1 µM; that for `Oc1csc(=S)n1N=Cc1ccc(Cl)s1` [3-[(5-chlorothiophen-2-yl)methylideneamino]-2-sulfanylidene-1,3-thiazolidin-4-one] was 27.1 µM. The value for `CC(=O)C1C(=O)OC(=CC=Cc2ccccc2)C1=O` (stereo not given) [3-acetyl-5-cinnamylidene-4-hydroxy-2-furanone] was 50.4 µM; that for `C=c1[nH]n(-c2nnc(C)c(=O)[nH]2)c(=O)c1=Cc1ccc(N(CC)CC)cc1` [3-{4-[1-(4-Diethylamino-phenyl)-meth-(Z)-ylidene]-3-methyl-5-oxo-4,5-dihydro-pyrazol-1-yl}-6-methyl-4H -[1,2,4]triazin-5-one] was 49.9 µM; that for `NS(=O)(=O)c1ccc(N=CCC(=O)c2ccc3ccccc3c2)cc1` [4-(3-Naphthalen-2-yl-3-oxo-propenylamino)-benzenesulfonamide] was 56.5 µM. Next, `CSc1nsc(CC=Nc2ccc(C(=O)O)cc2)c1C#N` [4-({2-[4-cyano-3-(methylsulfanyl)-5-isothiazolyl]vinyl}amino)benzenecarboxylic acid]: 27.6 µM; `CC1(C)CC(=O)C(=CNCC2CCN(C(=O)Cc3ccccc3)CC2)C(=O)C1` [5,5-dimethyl-2-[[[1-(2-phenylacetyl)piperidin-4-yl]methylamino]methylidene]cyclohexane-1,3-dione]: greater than 100 µM; `CC(c1sc(S)nc1O)c1sc(S)nc1O` [5-[1-(4-oxidanylidene-2-sulfanylidene-1,3-thiazolidin-5-yl)ethyl]-2-sulfanylidene-1,3-thiazolidin-4-one]: 52.4 µM. `CC1=NC(=O)NC(c2ccc(N3CCOCC3)cc2)C1C(=O)c1ccccc1` (stereo not given) [5-benzoyl-6-methyl-4-[4-(4-morpholinyl)phenyl]-3,4-dihydro-1H-pyrimidin-2-one]: the IC50 came out at 15.5 µM. Compound `COC1=CC([N+](=O)[O-])=CC(/C=N/NC(=O)c2cncc(Br)c2)C1=O` (stereo not given) [5-bromo-N'-[(E)-(5-methoxy-3-nitro-6-oxo-1-cyclohexa-2,4-dienylidene)methyl]-3-pyridinecarbohydrazide] had a concentration for half-maximal inhibition (IC50) of 39.1 µM. Next, `Cc1[nH]n(-c2ccccc2)c(=O)c1C=C1NC(=S)NC1=O` [5-methyl-4-[(Z)-(5-oxo-2-sulfanylideneimidazolidin-4-ylidene)methyl]-2-phenyl-4H-pyrazol-3-one]: 52.8 µM. Turning to `O=C1c2ccccc2SC1/C=N/c1cc([N+](=O)[O-])ccc1O` (stereo not given) [(2Z)-2-[[(5-nitro-2-oxidanyl-phenyl)amino]methylidene]-1-benzothiophen-3-one], the IC50 is 2.57 µM. On to `Cc1[nH]c2ccccc2c1/C=C1\N=C(c2ccccc2)OC1=O` [(4Z)-4-[(2-methyl-1H-indol-3-yl)methylidene]-2-phenyl-5-oxazolone], for which half-maximal inhibition (IC50) required 7.22 µM. As for `C=CCN1C(=O)C(/C=N/c2cccc([N+](=O)[O-])c2)C(=O)N(CCCC)C1=O` (stereo not given) [MLS000543529], the IC50 was determined as 42.7 µM. Next, `O=[N+]([O-])c1ccc(N=NCc2c[nH]c3ccccc23)cc1` [MLS000573812]: 2.05 µM. Take `O=[N+]([O-])c1ccc(N=NCc2ccc[nH]2)cc1` [MLS000595102]: it took 9.84 µM to reach half-maximal inhibition (IC50).

The compound `COc1cc2c3c(c1)C(C)=CC(C)(C)N3C(=O)C2=O` [MLS000688351] displayed an IC50 of 11.4 µM. `C=C(C=C(C)c1sc(S)nc1O)c1sc(S)nc1O` [MLS000723803] gave an IC50 of 87.5 µM. The compound `C=c1[nH]c2ccc(C)cc2c1=Cc1c(N)n2oc(C)cc2nc1=O` [MLS000730959] had an IC50 of 32.1 µM.

On to `O=C(N/N=C/C1C=C([N+](=O)[O-])C=CC1=O)c1cc(-c2ccccc2)nc2ccccc12` (stereo not given) [N'-[(E)-(3-nitro-6-oxo-1-cyclohexa-2,4-dienylidene)methyl]-2-phenyl-4-quinolinecarbohydrazide], for which the IC50 was determined as 10.7 µM. With `COc1cc(C=c2[nH]c3n(c2=O)CCCCC=3)ccc1O` [SMR000149996], the IC50 amounted to 29.7 µM. Take `O=[N+]([O-])c1ccc(N=NCc2cccn2-c2ccccc2)nc1` [SMR000161089]: the midpoint of inhibition, the IC50, lay at 29.5 µM. In the case of `COc1cc(C=CC(=O)C2C(=O)NC(=O)N(CCc3ccccc3)C2=O)ccc1O` (stereo not given) [SMR000221203], the IC50 was found to be 40.6 µM. The value for `Cc1cc(=O)[nH]c(N=NCc2c(O)n(-c3ccccc3)c(=O)c3ccccc23)n1` [SMR000221270] was 37.2 µM; that for `O=C(N/N=C/C1C=C(Cl)C=C([N+](=O)[O-])C1=O)c1ccccc1NS(=O)(=O)c1cccs1` (stereo not given) [SMR000364876] was 85.5 µM. In the case of `CCN(CC)CCOC(=O)c1ccc(N=CC(C#N)c2nc(-c3ccc(OC)c(OC)c3)cs2)cc1` (stereo not given) [SMR000434079], the IC50 is 28.7 µM.

`CCCCCCCCCCCC1N=C(N)N=C(CCCO)C1C(=O)OC` (stereo not given) [SMR001565729]: the IC50 turned out to be 42.3 µM.
